Assay results from article PMC4382497, “Inverse Agonistic Action of 3-Iodothyronamine at the Human Trace Amine-Associated Receptor 5” (PLoS ONE, 2015).

Molecular target: T1, hTAAR5 (Homo sapiens, UniProt O14804)
T1 construct: gene TAAR5; full length; N-terminal HA tag (YPYDVPDYA) and first 21 residues of bovine rhodopsin (Rho-tag) kept; vector pcDps; transient in HEK293 cells
T1 sequence (O14804 1-337): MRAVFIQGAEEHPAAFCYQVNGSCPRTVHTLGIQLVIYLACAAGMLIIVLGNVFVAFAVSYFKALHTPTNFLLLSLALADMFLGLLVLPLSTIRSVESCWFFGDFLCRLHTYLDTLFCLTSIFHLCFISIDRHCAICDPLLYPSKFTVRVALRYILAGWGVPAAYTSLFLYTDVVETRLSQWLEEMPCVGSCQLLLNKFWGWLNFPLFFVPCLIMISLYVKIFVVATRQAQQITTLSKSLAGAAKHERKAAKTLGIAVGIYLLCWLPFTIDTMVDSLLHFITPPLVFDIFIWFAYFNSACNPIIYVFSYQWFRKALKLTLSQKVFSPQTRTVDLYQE
Assay: NFAT-RE luciferase reporter (IP3-luc), HEK293
Format: cell-based
Conditions: inverse agonist; reduction of basal Gq/11 (IP3) signaling; 6 h, 37 °C; 1 nM to 100 μM

NCCc1ccc(Oc2ccc(O)cc2)c(I)c1 [3-T1AM]
EC50: 4.4 ± 0.9 µM
